# Source: patent US10357486B2, “Treatment of cognitive impairment with PDE4 inhibitor” (Universiteit Maastricht, priority 2013, dated 2019)
# Entries after “also recorded” stand apart in the source; their conditions may differ. Marks after values point to notes of the source that are not given here.
# Key:
# [1] = Plasma concentration levels of roflumilast and roflumilast-N-oxide in humans; format: in vivo, human
# Excerpt: An interim analysis has been performed based on the data of 9 subjects of the Impaired Elderly group and 4 subjects of the Healthy Elderly group. For this purpose, cognitive battery test scores (VLT, SMT, Stroop task and BL-VAS) and concentrations of roflumilast and roflumilast-N-oxide in plasma have been analysed and summarized by dose over each scheduled sampling time using descriptive statistics.
# [2] = system: scopolamine induced memory deficit in male Wistar rats; test: Object recognition task (ORT), scopolamine induced memory deficit; format: in vivo; details: for d2 (discrimination index): 1 h retention, mean (SEM)
# Excerpt: The objective of this study is to evaluate the efficacious dose range of roflumilast with regard to cognitive improvement effects by using scopolamine induced memory deficit on object memory performance in male Wistar rats. Memory acquisition processes are investigated using the object recognition test (ORT).
# Maintenance of Animals: Sixteen 3-4 month old male Wistar rats (Charles River, Sulzfeld, Germany) were used for the study. All animals were housed individually in standard green line Tecniplast IVC cages on stardust bedding. The animals were housed on a reversed 12/12 h light/dark cycle (lights on from 07:00 pm to 07:00 am) and had free access to food and water. The rats were housed and tested in the same room. A radio, playing softly, provided background noise in the room. All testing was performed between 09:00 am and 06:00 pm.
# Preparation of Compounds: Drugs were prepared daily, except as indicated otherwise. Roflumilast (Takeda, Konstanz, Germany, MW 403.21) was dissolved in 98% methylcellulose solution (0.5% methylcellulose) and 2% Tween 80. Roflumilast in doses of 0 (vehicle), 0.0001, 0.0003, 0.001, 0.003, 0.01 and 0.03 mg/kg was administered intraperitoneally (ip, injection volume 1 ml/kg). Scopolamine (in form of scopolamine hydrobromide) was dissolved in saline (0.9% NaCl). Scopolamine hydrobromide was administered intraperitoneally at a dose of 0.1 mg/kg (ip, injection volume 1 ml/kg). Scopolamine and roflumilast were administered 30 min before T1.
# Object Recognition Task in Rats: The ORT was performed as described elsewhere (Ennaceur and Delaceur, 1988, Behav Brain Res, Vol 31, pp 47-59; Akkerman et al; 2012, Behav Brain Res, Vol 232, pp 335-347). The apparatus consisted of a circular arena, 83 cm in diameter. The back half of the 40 cm high wall was made of grey PVC and the front was made of transparent PVC. Fluorescent red tubes and a light bulb provided a constant illumination of about 20 lux on the floor of the apparatus. The light intensity was equal in the different parts of the apparatus.
# Two objects were placed in symmetrical positions at the mid-line between the gray and transparent halves of the arena, about ten centimeters away from wall. Four different sets of objects were available: 1) a standard 1 L brown transparent glass bottle (diameter 10 cm, height 22 cm) filled with water, 2) a metal cube (10.0×5.0×7.5 cm) with two holes (diameter 1.9 cm), 3) a cone consisting of a gray PVC base (maximal diameter 18 cm) with a collar on top made of brass (total height 16 cm), and 4) an aluminium cube with a tapering top (13.0×8.0×8.0 cm). Objects were presented to the animals in a balanced manner to avoid object or place biases. Rats were unable to displace the objects.
# A test session comprised two trials, each with durations of 3 min. During the learning trial (T1) the apparatus contains two identical objects (object al and a2). Rats were always introduced into the apparatus with their nose towards the transparent wall segment (i.e. facing outwards to the front of the arena). Subsequently, rats were put back in its home cage for a 1 h interval. After the retention interval, rats were put back into the arena for the […] (T2). In T2, the two objects from T1 were replaced by one identical copy (a3) and a different novel object (b). The times spent in exploring each object during T1 and T2 were recorded manually on a personal computer.
# Exploration was defined in the following manner: directing the nose to the object at a distance of no more than 2 cm and/or touching the object with the nose. Sitting on the object was not considered as exploratory behavior. In order to avoid the presence of olfactory cues, the objects were thoroughly cleaned with a 70% ethanol solution before each trial.
# Prior to compound testing, the animals were handled for 5 min on 2 consecutive days and allowed to explore the ORT arena, also for 5 min. […]
smiles,measurement,setting,value
"O=C(Nc1c(Cl)cncc1Cl)c1ccc(OC(F)F)c(OCC2CC2)c1 [roflumilast, N-(3,5-dichloropyridin-4-yl)-3-cyclopropylmethoxy-4-difluoromethoxybenzamide]",exposure (concentrations in plasma),"[1]; elderly study, interim analysis, 100, 250, 1000 mcg",consistent with those previously reported
same,steady state plasma concentration levels in once a day repeated dosing compared to once a day single dosing,"[1]; humans, once a day (24 h) regimen",about two-fold
same,d2 value compared to the vehicle condition (post-hoc Bonferroni t-test),[2]; 0.0001 mg/kg ip + scopolamine,significantly lower
same,d2 value compared to the scopolamine condition (post-hoc Bonferroni t-test),[2]; 0.003 mg/kg ip + scopolamine,significantly higher
same,d2 value compared to the scopolamine condition (post-hoc Bonferroni t-test),[2]; 0.01 mg/kg ip + scopolamine,significantly higher
same,d2 value compared to the scopolamine condition (post-hoc Bonferroni t-test),[2]; 0.03 mg/kg ip + scopolamine,significantly higher
same,d2 (discrimination index),[2]; roflumilast 0.0001 mg/kg ip + scopolamine 0.1 mg/kg ip,0.05 (0.05)
same,d2 (discrimination index),[2]; roflumilast 0.0003 mg/kg ip + scopolamine 0.1 mg/kg ip,0.16 (0.06) #
same,d2 (discrimination index),[2]; roflumilast 0.001 mg/kg ip + scopolamine 0.1 mg/kg ip,0.27 (0.06) ###
same,d2 (discrimination index),[2]; roflumilast 0.003 mg/kg ip + scopolamine 0.1 mg/kg ip,0.43 (0.06) ###
same,d2 (discrimination index),[2]; roflumilast 0.01 mg/kg ip + scopolamine 0.1 mg/kg ip,0.34 (0.06) ###
same,d2 (discrimination index),[2]; roflumilast 0.03 mg/kg ip + scopolamine 0.1 mg/kg ip,0.30 (0.07) ###
same,effect on memory function in rats treated with scopolamine (ORT),"[2]; single ip dose 0.0001 mg/kg, 0.0001 mg/kg",No effect
same,effect on memory function in rats treated with scopolamine (ORT),"[2]; single ip dose 0.0003 mg/kg, 0.0003 mg/kg",intermediate memory improvement; also recorded: increasingly less efficacy
same,effect on memory function in rats treated with scopolamine (ORT),"[2]; single ip dose 0.001 mg/kg, 0.001 mg/kg",intermediate memory improvement; also recorded: increasingly less efficacy
same,effect on memory function in rats treated with scopolamine (ORT),"[2]; single ip dose 0.003 mg/kg, 0.003 mg/kg",fully restore memory function
same,effect on memory function in rats treated with scopolamine (ORT),[2]; single ip dose 0.01 mg/kg,increasingly less efficacy
same,effect on memory function in rats treated with scopolamine (ORT),[2]; single ip dose 0.03 mg/kg,increasingly less efficacy
